# How the values were obtained:
# ALOMY [1] = assay: Pre-emergence action against ALOMY; assay type: in vivo, Alopecurus myosuroides; settings: Alopecurus myosuroides, 504 h; dosage 320 g/ha; pre-emergence; scored visually after 3 weeks vs untreated controls; 100% = plants have died, 0% = like control plants; read-out: Pre-emergence action against ALOMY (herbicidal activity in percent)
# Procedure, shortened: (§1)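 Seeds sown in sandy loam in wood-fiber pots and covered with soil. Greenhouse growth; visual damage scored after 3 weeks versus untreated controls (100% = dead, 0% = like control).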
# DIGSA = assay: Pre-emergence action against DIGSA; assay type: in vivo, Digitaria sanguinalis; settings: dosage 320 g/ha, scored visually after 3 weeks vs untreated controls
# Excerpt: (§2) Seeds of monocotyledonous and dicotyledonous weed plants and crop plants are laid out in sandy loam soil in wood-fiber pots and covered with soil. The compounds of the invention, formulated in the form of wettable powders (WP) or as emulsion concentrates (EC), are then applied to the surface of the covering soil in the form of an aqueous suspension or emulsion at a water application rate equating to […], with addition of 0.2% wetting agent. After the treatment, the pots are placed in a greenhouse and kept under good growth conditions for the trial plants. The damage to the test plants is scored visually after a test period of 3 weeks by comparison with untreated controls (herbicidal activity in percent (%): 100% activity=the plants have died, 0% activity=like control plants).
# ECHCG [2] = assay: Pre-emergence action against ECHCG; assay type: in vivo, Echinochloa crus-galli; settings: Echinochloa crus-galli, 504 h; pre-emergence, dosage 320 g/ha, scored visually after 3 weeks vs untreated controls; read-out: Pre-emergence action against ECHCG (herbicidal activity)
# Procedure, shortened: as §1
# SETVI [3] = assay: Pre-emergence action against SETVI; assay type: in vivo, Setaria viridis; settings: Setaria viridis, 504 h; pre-emergence, dosage 320 g/ha, scored visually after 3 weeks vs untreated controls; read-out: SETVI (Table B8, pre-emergence herbicidal activity)
# Procedure, shortened: as §1
# ABUTH [4] = assay: Pre-emergence action against ABUTH; assay type: in vivo, Abutilon theophrasti; settings: pre-emergence, dosage 320 g/ha, scored visually after 3 weeks vs untreated controls; for pest or weed control at 320 g/ha: Abutilon theophrasti, 504 h, read-out: Pre-emergence action against ABUTH (herbicidal activity)
# Procedure, shortened: as §1
# AMARE [5] = assay: Pre-emergence action against AMARE; assay type: in vivo, Amaranthus retroflexus; settings: pre-emergence, dosage 320 g/ha, scored visually after 3 weeks vs untreated controls; for pest or weed control at 320 g/ha: Amaranthus retroflexus, 504 h, read-out: Pre-emergence action against AMARE (herbicidal activity)
# Procedure, shortened: as §1
# MATIN [6] = assay: Pre-emergence action against MATIN; assay type: in vivo, Matricaria inodora; settings: Dosage 320 g/ha, pre-emergence; for pest or weed control at 320 g/ha: Tripleurospermum inodorum, 504 h
# Procedure, shortened: as §1
# PHBPU [7] = assay: Pre-emergence action against PHBPU; assay type: in vivo, Pharbitis purpurea; settings: Ipomoea purpurea, 504 h; Dosage 320 g/ha, pre-emergence
# Procedure, shortened: as §1
# POLCO [8] = assay: Pre-emergence action against POLCO; assay type: in vivo, Polygonum convolvulus; settings: Fallopia convolvulus, 504 h; Dosage 320 g/ha, pre-emergence
# Procedure, shortened: as §1
# STEME [9] = assay: Pre-emergence action against STEME; assay type: in vivo, Stellaria media; settings: Dosage 320 g/ha, pre-emergence; for pest or weed control at 320 g/ha: Stellaria media, 504 h
# Procedure, shortened: as §1
# VIOTR [10] = assay: Pre-emergence action against VIOTR; assay type: in vivo, Viola tricolor; settings: Dosage 320 g/ha, pre-emergence; for pest or weed control at 320 g/ha: Viola tricolor, 504 h
# Procedure, shortened: as §1
# VERPE [11] = assay: Pre-emergence action against VERPE; assay type: in vivo, Veronica persica; settings: Dosage 320 g/ha, pre-emergence; for pest or weed control at 320 g/ha: Veronica persica, 504 h
# Procedure, shortened: as §1
# ABUTH [12] = assay: Post-emergence action against ABUTH; assay type: in vivo, Abutilon theophrasti; settings: post-emergence, dosage 80 g/ha, visual assessment about 3 weeks after treatment vs untreated controls; for pest or weed control at 80 g/ha: Abutilon theophrasti, 504 h, read-out: Post-emergence action against ABUTH (herbicidal action in percent)
# Procedure, shortened: (§3)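 Weeds grown in sandy loam in greenhouse, treated at one-leaf stage (2–3 weeks after sowing) with WP or EC formulations sprayed as aqueous suspension/emulsion at 600 to […] water with 0.2% wetting agent. Visual rating after about 3 weeks versus untreated controls, as % herbicidal action (100% = plants dead, 0% = like control).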
# AMARE [13] = assay: Post-emergence action against AMARE; assay type: in vivo, Amaranthus retroflexus; settings: post-emergence, dosage 80 g/ha, visual assessment about 3 weeks after treatment vs untreated controls; for pest or weed control at 80 g/ha: Amaranthus retroflexus, 504 h, read-out: Post-emergence action against AMARE (herbicidal action in percent)
# Procedure, shortened: as §3
# MATIN [14] = assay: Post-emergence action against MATIN; assay type: in vivo, Matricaria inodora; settings: post-emergence, dosage 80 g/ha, visual assessment about 3 weeks after treatment vs untreated controls; for pest or weed control at 80 g/ha: Tripleurospermum inodorum, 504 h, read-out: Post-emergence action against MATIN (herbicidal action in percent)
# Procedure, shortened: as §3
# PHBPU [15] = assay: Post-emergence action against PHBPU; assay type: in vivo, Pharbitis purpurea; settings: post-emergence, dosage 80 g/ha; for pest or weed control at 80 g/ha: Ipomoea purpurea, 504 h
# Procedure, shortened: as §3
# STEME [16] = assay: Post-emergence action against STEME; assay type: in vivo, Stellaria media; settings: post-emergence, dosage 80 g/ha; for pest or weed control at 80 g/ha: Stellaria media, 504 h
# Procedure, shortened: as §3
# VERPE [17] = assay: Post-emergence action against VERPE; assay type: in vivo, Veronica persica; settings: Veronica persica, 504 h, dosage 80 g/ha
# Procedure, shortened: as §3
# AVEFA = assay: Pre-emergence action against AVEFA; assay type: in vivo, Avena fatua; settings: dosage 320 g/ha, scored visually after 3 weeks vs untreated controls
# Procedure, shortened: as §1
# LOLRI = assay: Pre-emergence action against LOLRI; assay type: in vivo, Lolium rigidum; settings: Lolium rigidum, 504 h, dosage 320 g/ha, scored visually after 3 weeks vs untreated controls, read-out: Pre-emergence action against LOLRI (herbicidal activity)
# Excerpt: as §2
# HORMU = assay: Pre-emergence action against HORMU; assay type: in vivo, Hordeum murinum; settings: Hordeum murinum, 504 h, Dosage 320 g/ha
# Excerpt: as §2
# ALOMY [18] = assay: Post-emergence action against ALOMY; assay type: in vivo, Alopecurus myosuroides; settings: Alopecurus myosuroides, 504 h; Dosage 80 g/ha, post-emergence
# Procedure, shortened: as §3
# CYPES = assay: Post-emergence action against CYPES; assay type: in vivo, Cyperus esculentus; settings: Cyperus esculentus, 504 h; post-emergence, dosage 80 g/ha, visual assessment about 3 weeks after treatment vs untreated controls; read-out: Post-emergence action against CYPES (herbicidal action in percent)
# Procedure, shortened: as §3
# ECHCG [19] = assay: Post-emergence action against ECHCG; assay type: in vivo, Echinochloa crus-galli; settings: Echinochloa crus-galli, 504 h; post-emergence, dosage 80 g/ha, visual assessment about 3 weeks after treatment vs untreated controls; read-out: Post-emergence action against ECHCG (herbicidal action in percent)
# Procedure, shortened: as §3
# SETVI [20] = assay: Post-emergence action against SETVI; assay type: in vivo, Setaria viridis; settings: Setaria viridis, 504 h; post-emergence, dosage 80 g/ha, visual assessment about 3 weeks after treatment vs untreated controls; read-out: Post-emergence action against SETVI (herbicidal action in percent)
# Procedure, shortened: as §3
# POLCO [21] = assay: Post-emergence action against POLCO; assay type: in vivo, Polygonum convolvulus; settings: Fallopia convolvulus, 504 h; post-emergence, dosage 80 g/ha
# Procedure, shortened: as §3
# VIOTR [22] = assay: Post-emergence action against VIOTR; assay type: in vivo, Viola tricolor; settings: Viola tricolor, 504 h; post-emergence, dosage 80 g/ha
# Procedure, shortened: as §3
Structure (SMILES),pest or weed control at 320 g/ha (ALOMY [1]) [%],Pre-emergence action against DIGSA (herbicidal activity) (DIGSA) [%],pest or weed control at 320 g/ha (ECHCG [2]) [%],pest or weed control at 320 g/ha (SETVI [3]) [%],pest or weed control at 320 g/ha (ABUTH [4]) [%],pest or weed control at 320 g/ha (AMARE [5]) [%],pest or weed control at 320 g/ha (MATIN [6]) [%],pest or weed control at 320 g/ha (PHBPU [7]) [%],pest or weed control at 320 g/ha (POLCO [8]) [%],pest or weed control at 320 g/ha (STEME [9]) [%],pest or weed control at 320 g/ha (VIOTR [10]) [%],pest or weed control at 320 g/ha (VERPE [11]) [%],pest or weed control at 80 g/ha (ABUTH [12]) [%],pest or weed control at 80 g/ha (AMARE [13]) [%],pest or weed control at 80 g/ha (MATIN [14]) [%],pest or weed control at 80 g/ha (PHBPU [15]) [%],pest or weed control at 80 g/ha (STEME [16]) [%],pest or weed control at 80 g/ha (VERPE [17]) [%],Pre-emergence action against ABUTH (herbicidal activity) (ABUTH [4]) [%],Pre-emergence action against AMARE (herbicidal activity) (AMARE [5]) [%],further results
Cc1ccc(C(=O)Nc2nnnn2C)c(C)c1C(=O)C1CC1 [1-3],90,90,90,90,90,100,100,80,80,90,90,90,100,100,90,90,90,90,,,
CSc1c(C(=O)Nc2nnnn2C)ccc(C(F)F)c1C(C)=O [1-65],100,,100,100,100,100,100,100,100,100,100,100,100,100,100,100,100,100,,,"pest or weed control at 320 g/ha (AVEFA; Avena fatua, 504 h, read-out: Pre-emergence action against AVEFA (herbicidal activity)): 100%; pest or weed control at 320 g/ha (LOLRI): 80%; pest or weed control at 320 g/ha (HORMU): 90%; pest or weed control at 80 g/ha (ALOMY [18]): 80%; pest or weed control at 80 g/ha (CYPES): 90%; pest or weed control at 80 g/ha (ECHCG [19]): 100%; pest or weed control at 80 g/ha (SETVI [20]): 100%; pest or weed control at 80 g/ha (POLCO [21]): 100%; pest or weed control at 80 g/ha (VIOTR [22]): 100%"
Cn1nnnc1NC(=O)c1ccc(C(F)(F)F)c(C(=O)C2CCCCC2)c1Cl [1-155],,90,,,,,,,,,,,,,,,,,100,80,Pre-emergence action against MATIN (MATIN [6]): 90%; Pre-emergence action against STEME (STEME [9]): 90%; Pre-emergence action against VIOTR (VIOTR [10]): 100%; Post-emergence action against ABUTH (herbicidal action in percent) (ABUTH [12]): 90%; Post-emergence action against AMARE (herbicidal action in percent) (AMARE [13]): 90%; Post-emergence action against MATIN (herbicidal action in percent) (MATIN [14]): 80%; Post-emergence action against PHBPU (PHBPU [15]): 80; Post-emergence action against STEME (STEME [16]): 80
CSc1c(C(=O)Nc2nnnn2C)ccc(C(F)(F)F)c1C(=O)C1CCCCC1 [1-286],,100,,,,,,,,,,,,,,,,,100,100,Pre-emergence action against AVEFA (herbicidal activity) (AVEFA): 90%; Pre-emergence action against MATIN (MATIN [6]): 90%; Pre-emergence action against STEME (STEME [9]): 90%; Pre-emergence action against VIOTR (VIOTR [10]): 100%; Pre-emergence action against VERPE (VERPE [11]): 90%; Post-emergence action against ABUTH (herbicidal action in percent) (ABUTH [12]): 90%; Post-emergence action against AMARE (herbicidal action in percent) (AMARE [13]): 90%; Post-emergence action against STEME (STEME [16]): 90
